Measurements as given in PubChem BioAssay (NCI).
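Growth conditions: 96-well plates. Treatment: test compound, 48 hours, 5 concentrations. Analysis: linear interpolation between bracketing concentrations; unreached endpoints set to highest concentration. GI50 marks 50% less growth. The concentration for full growth arrest is given as TGI.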

How the values were obtained:
Assay in all cases: NCI anticancer screen, dose series, 48 h
[1] = system: PC-3 prostate
[2] = system: SF-268 CNS
[3] = system: OVCAR-5 ovarian
[4] = system: SK-MEL-28 melanoma
[5] = system: NCI/ADR-RES ovarian
[6] = system: UACC-257 melanoma
[7] = system: ACHN renal
[8] = system: SK-MEL-5 melanoma
[9] = system: DU-145 prostate
[10] = system: EKVX NSCLC

Row | SMILES | GI50 [1] [µM] | TGI [1] [µM] | GI50 [2] [µM] | TGI [2] [µM] | GI50 [3] [µM] | TGI [3] [µM] | GI50 [4] [µM] | TGI [4] [µM] | GI50 [5] [µM] | TGI [5] [µM] | GI50 [6] [µM] | TGI [6] [µM] | GI50 [7] [µM] | TGI [7] [µM] | GI50 [8] [µM] | TGI [8] [µM] | GI50 [9] [µM] | TGI [9] [µM] | GI50 [10] [µM] | TGI [10] [µM]
1 | Cc1ccccc1-n1ncc(C(=O)c2ccccc2)c1N | > 25 | > 25 | > 25 | > 25 | > 25 | > 25 | > 25 | > 25 | > 25 | > 25 | > 25 | > 25 | > 25 | > 25 | > 25 | > 25 | > 25 | > 25 | – | –
2 | Nc1nc(OCc2cc(Br)cs2)c2[nH]cnc2n1 | 21.8 | > 100 | 32.3 | > 100 | 29.8 | > 100 | 29.3 | > 100 | 29.5 | > 100 | – | – | 13.7 | 52 | 15.9 | 39.6 | 33 | > 100 | 24.7 | > 100
3 | CC(=O)c1ccc(OCC(O)CO)cc1 (stereo not given) | – | – | – | > 100 | – | > 100 | – | > 100 | – | – | – | > 100 | – | > 100 | – | > 100 | – | – | – | > 100
4 | O=C(c1ccccc1)N1C2CCC1C(C(F)(F)F)=C2C(F)(F)F | – | – | – | > 100 | – | > 100 | – | – | – | – | – | > 100 | – | – | – | > 100 | – | – | – | > 100
5 | N#Cc1c2c(c(N=P(c3ccccc3)(c3ccccc3)c3ccccc3)n3c1nc1ccccc13)CCCC2 | – | – | – | > 100 | – | – | – | > 100 | – | – | – | 57.8 | – | 67.5 | – | 27.3 | – | – | – | > 100
6 | CC(/C(=N\Nc1ccccc1)c1ccc(O)cc1)C1C(=O)Oc2ccccc21 (stereo not given) | – | – | – | – | – | – | – | – | – | – | – | > 100 | – | > 100 | – | > 100 | – | – | – | > 100
7 | Cc1ccc(-c2cc3c(SCC(=O)Nc4cc(C(F)(F)F)ccc4Cl)nccn3n2)cc1 | > 100 | > 100 | 79.4 | > 100 | > 100 | > 100 | > 100 | > 100 | > 100 | > 100 | – | – | 6.17 | > 100 | > 100 | > 100 | > 100 | > 100 | – | –
8 | Clc1cccc(Cl)c1C1CSc2ccccc2N=C1c1ccccc1 (stereo not given) | 5.6 | 20.9 | 3.07 | 11.2 | 3.88 | 13.2 | 4.82 | 17.3 | 4.14 | 32 | 13.5 | 27 | 2.45 | 7.3 | 4.74 | 18.1 | 5.74 | 18.3 | – | –
9 | NC(N)=N/N=C/c1c(-c2cc(Cl)sc2Cl)nc2sccn12 | 1.55 | 6.15 | 1.26 | 3.9 | 0.956 | 2.05 | – | – | 7.71 | 15.4 | 8.6 | 17.6 | 0.703 | 1.41 | 0.729 | 1.56 | – | – | 3.72 | 13.1
10 | C=C(C)[C@@H]1CC[C@]2(C(=O)O)CC[C@]3(C)[C@H](CC[C@@H]4[C@@]5(C)C[C@@H](CC#Cc6ccc(C(F)(F)F)cc6)[C@H](O)C(C)(C)[C@@H]5CC[C@]43C)[C@@H]12 | – | – | – | – | – | – | – | – | 47.3 | > 100 | – | – | 4.04 | > 100 | 8.97 | > 100 | 3.52 | > 100 | 3.82 | > 100
11 | CNCc1cc(OC)ccc1-c1ccc(OC)c(OC)c1OC | – | – | – | > 100 | – | > 100 | – | > 100 | – | – | – | > 100 | – | > 100 | – | > 100 | – | – | – | > 100
12 | O=C1c2ccccc2S(=O)(=O)N1CSC(=S)N1CCCCC1 | – | – | > 100 | > 100 | > 100 | > 100 | > 100 | > 100 | > 100 | > 100 | > 100 | > 100 | > 100 | > 100 | 33.2 | > 100 | > 100 | > 100 | > 100 | > 100
13 | CC1C[C@H](C)CC(C(O)CC2CC(=O)N(Cc3ccccc3)C(=O)C2)C1O (stereo not given in full) | – | – | – | > 100 | – | > 100 | – | > 100 | – | – | – | > 100 | – | > 100 | – | – | – | – | – | > 100
14 | Cc1ccc2ncnc(N(CC(C)C)CC(C)C)c2c1 | 11 | 27.8 | 16.2 | 37.7 | 20.1 | 43.7 | 19.9 | 42.6 | 10.4 | 24.6 | – | – | 15.3 | 31.5 | 6.9 | 25.6 | 15.5 | 32.4 | – | –
15 | CCCCCCCCOCC(O)COC(=O)CCCCCCC (stereo not given) | – | – | – | > 100 | – | > 100 | – | > 100 | – | – | – | > 100 | – | > 100 | – | > 100 | – | – | – | –
16 | COC(=O)C(=O)C(C(=O)C(=O)Nc1nc2ccc(C)cc2s1)c1nc2ccc([N+](=O)[O-])cc2[nH]c1=O (stereo not given) | – | > 100 | – | > 100 | – | > 100 | – | > 100 | – | > 100 | – | > 100 | – | > 100 | – | > 100 | – | – | – | > 100
17 | CCOC(=O)CSC(=O)NCCCl | – | – | – | > 100 | – | > 100 | – | > 100 | – | – | – | > 100 | – | > 100 | – | – | – | – | – | > 100
18 | NNC(=O)CNC(=O)c1ccc(Cl)cc1Cl | – | – | – | > 100 | – | > 100 | – | > 100 | – | – | – | > 100 | – | > 100 | – | > 100 | – | – | – | > 100
19 | COc1ccc(C2CC(c3cc(C)ccc3O)=NC(N)=N2)cc1 (stereo not given) | – | – | – | > 100 | – | > 100 | – | > 100 | – | – | – | > 100 | – | > 100 | – | – | – | – | – | > 100
20 | OCC(O)C(O)C(O)c1nn(-c2ccc(Cl)cc2)c2nc3cc(Cl)c(Cl)cc3nc12 (stereo not given) | – | – | – | > 100 | – | > 100 | – | > 100 | – | – | – | > 100 | – | > 100 | – | – | – | – | – | 67.9
